ChEMBL document CHEMBL1159069, “[Lys(DOTA)4]BVD15, a novel and potent neuropeptide Y analog designed for Y1 receptor-targeted breast tumor imaging” (Bioorg Med Chem Lett, 2010)
Several values for one entry are separate records, joined by “and”; a condition that tells them apart may be missing. Identical values can stand only once. One block for each molecule: values may come before it. Where a SMILES comes first, the peptide text is derived from it. The star is where a group is joined. DOTA = O=C(O)CN1CCN(CC(=O)O)CCN(CC(=O)*)CCN(CC(=O)O)CC1

Legend:
Type in all cases: cell-based
[1] = molecular target: T1, Neuropeptide Y receptor type 2 (Homo sapiens, UniProt P49146); experiment: Displacement of [125I]PYY from human neuropeptide Y2 receptor expressed in human SK-N-BE2 cells after 40 mins
T1 sequence (P49146 whole entry): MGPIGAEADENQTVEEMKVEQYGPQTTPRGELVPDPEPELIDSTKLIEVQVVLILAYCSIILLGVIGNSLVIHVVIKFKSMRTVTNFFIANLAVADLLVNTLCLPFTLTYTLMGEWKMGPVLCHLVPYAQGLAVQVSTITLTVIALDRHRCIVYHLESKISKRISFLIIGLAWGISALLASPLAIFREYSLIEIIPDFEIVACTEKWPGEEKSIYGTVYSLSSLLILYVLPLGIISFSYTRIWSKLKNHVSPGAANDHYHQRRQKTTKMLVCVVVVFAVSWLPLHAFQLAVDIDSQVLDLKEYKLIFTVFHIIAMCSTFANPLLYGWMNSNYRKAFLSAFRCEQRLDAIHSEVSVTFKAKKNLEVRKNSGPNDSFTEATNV

[2] = molecular target: Neuropeptide Y receptor type 4 (Homo sapiens, UniProt P50391); experiment: Displacement of [125I]Pancreatic polypeptide from human neuropeptide Y4 receptor in human HEK293 cells after 40 mins
[3] = molecular target: T2, Neuropeptide Y receptor type 1 (Homo sapiens, UniProt P25929); experiment: Displacement of [125I]NPY from human neuropeptide Y1 receptor expressed in human MCF7 cells after 40 mins
T2 sequence (P25929 whole entry): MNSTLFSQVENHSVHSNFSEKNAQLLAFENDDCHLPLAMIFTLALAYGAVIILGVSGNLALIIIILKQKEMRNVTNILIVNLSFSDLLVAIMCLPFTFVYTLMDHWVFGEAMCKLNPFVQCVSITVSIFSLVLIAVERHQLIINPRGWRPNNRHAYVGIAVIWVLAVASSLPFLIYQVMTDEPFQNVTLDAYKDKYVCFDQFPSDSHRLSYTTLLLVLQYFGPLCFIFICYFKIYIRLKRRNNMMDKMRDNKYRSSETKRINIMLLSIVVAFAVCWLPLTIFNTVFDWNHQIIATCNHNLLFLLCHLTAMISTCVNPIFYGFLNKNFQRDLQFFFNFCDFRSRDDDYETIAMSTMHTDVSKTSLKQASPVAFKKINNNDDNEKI

Neuropeptide Y receptor type 4, sequence (P50391 whole entry): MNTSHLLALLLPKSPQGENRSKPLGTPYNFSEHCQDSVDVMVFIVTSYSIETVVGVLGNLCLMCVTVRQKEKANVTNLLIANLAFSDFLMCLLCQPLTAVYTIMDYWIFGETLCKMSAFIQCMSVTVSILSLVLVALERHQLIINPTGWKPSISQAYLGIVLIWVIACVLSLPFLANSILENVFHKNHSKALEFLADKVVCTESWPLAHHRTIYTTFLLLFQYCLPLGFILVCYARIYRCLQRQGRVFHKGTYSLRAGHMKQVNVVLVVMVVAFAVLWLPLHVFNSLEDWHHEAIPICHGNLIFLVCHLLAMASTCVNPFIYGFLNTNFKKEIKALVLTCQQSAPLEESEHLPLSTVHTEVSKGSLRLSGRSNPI

Ki [1]: Not Active
Ki ([2]; hek293): Not Active
Molecule: CC[C@H](C)[C@H](N)C(=O)N[C@@H](CC(N)=O)C(=O)N1CCC[C@H]1C(=O)N[C@@H](CCCCNC(=O)CN1CCN(CC(=O)O)CCN(CC(=O)O)CCN(CC(=O)O)CC1)C(=O)N[C@@H](Cc1ccc(O)cc1)C(=O)N[C@@H](CCCNC(=N)N)C(=O)N[C@@H](CC(C)C)C(=O)N[C@@H](CCCNC(=N)N)C(=O)N[C@@H](Cc1ccc(O)cc1)C(N)=O

Ki ([3]; mcf7): Not Active
Molecule: CC(C)C[C@H](NC(=O)[C@H](CCCNC(=N)N)NC(=O)[C@H](Cc1ccc(O)cc1)NC(=O)[C@H](CCCCNC(=O)CN1CCN(CC(=O)O)CCN(CC(=O)O)CCN(CC(=O)O)CC1)NC(=O)[C@@H]1CCCN1C(=O)[C@@H](N)CC(N)=O)C(=O)N[C@@H](CCCNC(=N)N)C(=O)N[C@@H](Cc1ccc(O)cc1)C(=O)O (H-NPK(DOTA)YRLRY-OH)

Ki ([3]; read-out: Ki): 128 nM
Molecule: H-IKPIYRLRY-NH2

Ki ([3]; read-out: Ki): 5 nM and 39 nM
Ki ([1]; read-out: Ki): 11.3 nM
Ki ([2]; read-out: Ki): 5.8 nM
Molecule: H-INPIYRLRY-OH
